Test results taken from patent publication US11746103B2, “ALK-5 inhibitors and uses thereof” (Sumitomo Pharma Oncology, Inc., priority 2020, dated 2023).

Key:
[1] = system: antigen presentation pathway (APP); experiment: Nanostring differential gene expression analyses of 4T1, EMT6 and S91 tumors; format: in vivo, mouse; conditions: 4T1, EMT6, S91 tumors
Text: The objective of this study was to determine the differential gene expression (DGE) patterns of 4T1, EMT6, and S91 tumors treated with EX-11+immune checkpoint inhibitor (ICI), EX-11 alone, ICI alone, or vehicle control. For the purpose of this study, ICI=anti-PD-1 or anti-PD-L1, as indicated.
For NanoString assays, tumors from three syngeneic models of cancer were used:
RNA was isolated from the frozen tumors of ≥3 mice per group using the Direct-Zol RNA Miniprep (Zymo Research). The treatment arms and number of mice/tumors used for downstream applications is outlined in Table 17 (R=Responder, NS=Non-responder).
Equal concentrations of RNA for each tumor within each group were pooled. Two-hundred ng of RNA per group was used for downstream applications. Three separate NanoString nCounter panels were used per protocol: 1) Fibrosis, 2) PanCancer Pathways, 3) Immunology. RCC raw data files were uploaded into nCounter 4.0 software where counts were normalized to housekeeping genes. Gene lists in each panel were combined into a single spreadsheet for downstream analyses. For genes found in […], mean count values were used. RStudio software was used to generate heat maps of DGE signatures within each study for each group. Ingenuity Pathway Analysis (IPA) was used to identify the dysregulated signaling pathways within each study for each group.

[2] = system: EMT6 tumors; experiment: Immunohistochemistry (CD31, CD45) of EMT6 tumors; format: in vivo, mouse
Text: EX-11 is an ALK5 inhibitor that has been proposed to affect multiple processes in the tumor microenvironment through downregulation of TGF-β signaling, including vasculature remodeling and leukocyte infiltration. The objective of this study was to compare the levels of CD31 and CD45, subject to different treatment conditions in 4T1, EMT6, and S91 tumors. CD31 is an established marker of vascular differentiation, and CD45 is an established marker of leukocytes.
For IHC analyses, tumors from three syngeneic models of cancer were used: • 1) Example L: 4T1 (triple-negative breast cancer [TNBC]); Balb/c mice • 2) Example K: EMT6 (TNBC); Balb/C mice • 3) Example M: S91 (melanoma); DBA/2 mice
Tumors were fixed in formalin for 48 hours, then stored in […] prior to paraffin embedding. Embedded blocks were sectioned at […] and placed on glass slides for IHC staining.
Leica Biosystems Bond Software and Leica Bond Rx Research Stainer were used per protocol to stain tissue sections. […] Images were manually scored by a pathologist, blinded to treatment information. […] CD45 was scored by calculating the number of CD45-positive cells divided by the total number of viable nucleated cells within the whole tumor region(s). CD31 density was scored by calculating the total number of CD31 positive vessels divided by the whole tumor area (mm^2).

[3] = system: cancer associated fibroblast (CAF) genes in human primary dermal fibroblasts; experiment: CAF gene suppression assay (qPCR); format: cell-based
Method: Human primary dermal fibroblasts (ATCC) were divided into four groups: DMSO-TGFβ, DMSO+TGFβ (1 ng/mL), 30 nM EX-11+TGFβ (1 ng/mL), and 300 nM EX-11+TGFβ (1 ng/mL). Cells were treated for 24 hours, then mRNA was extracted, quantified, and reverse transcribed. qPCR was run for the following cancer associated fibroblast (CAF) genes: ACTA2, FAP, ITGB1, CD9, TAGLN, ANTXR1, SOC1, Lamp5, Col1A2, and TGFβ1, using the TaqMan system in a Quant Studio.

[4] = Method: Female, athymic nude mice (aged 6-8 weeks) were randomized to one of 12 study arms (n=3 per arm) (Table 16) and weighed prior to dosing. Mice were dosed via oral gavage either once daily (QD), or bi-daily (BID) for five days. […] The vehicle for PF-06952229 (PF) was 10% DMSO, 40% PEG300, 5% tween-80, 45% saline. For the vehicle alone group in this study, the PF-06952229 vehicle was used. At the end of each day for 10 days, mice were weighed, and symptoms of toxicity (if present) were recorded. A qualitative determination of overall toxicity was made based on the number and severity of symptoms for each cohort. The safety margin was determined at the end of day 10 based on the following equation: (maximum tolerated dose)/(minimum effective dose).
[5] = system: Cloudman S91 melanoma; experiment: Cloudman S91 melanoma syngeneic study; conditions: single agents
Method: The objective of this study was to evaluate preclinically the in vivo therapeutic efficacy of EX-11+/−anti-PD-1 therapy for the treatment of subcutaneous Cloudman S91 melanoma model in DBA/2 mice.
Female, DBA/2 mice (aged 7-9 weeks) were inoculated subcutaneously in the right flank region with Cloudman S91 melanoma cells (2×10^5) in 0.1 ml of PBS. Once the mean tumor size reached approximately 100 mm^3 (day 19), 60 mice were randomized to 6 treatment arms (10 mice per arm).
The anti-PD-1 inhibitor used in this study was a product of Crownbio/OEM (Cat #: CVP033, Lot #: 0920L765). The vehicle for the anti-BD-1 inhibitor was PBS. The drug was injected intraperitoneally (i.p.), bi-weekly (BIW) for 3 weeks. The vehicle for EX-11 was 1000 tween-20, 900% ddH2O. The vehicle used for EX-11 was also used for the “Vehicle” arm of the study. EX-11 and the vehicle were delivered via oral gavage (p.o.), bi-daily (BID) for 21 days.
Body weights and tumor volumes were measured 3 times per week. Tumor volumes were measured in two dimensions using a caliper, and the volume was expressed in mm^3 using the formula: V=(L×W×W)/2, where V is tumor volume, L is tumor length (the longest tumor dimension) and W is tumor width (the longest tumor dimension perpendicular to L).
The study was terminated 50 days post-inoculation. […]

[6] = system: human CD4+CD45RA+ naïve T cells; experiment: In vitro Treg differentiation study; format: cell-based; conditions: CD3/CD28+IL2+TGFβ, 5 days
Method: The effect of EX-11 on Treg differentiation was evaluated using human CD4^+CD45RA^+ naïve T cells from Lonza. CD4^+/CD45RA^+ naïve T cells were treated with EX-11, CD3/CD28 ([…] Technologies) and 10 ng/ml of IL-2 (Thermo Fisher Scientific) with or without 5 ng/ml TGFβ (R&D Systems) in ImmunoCult™-XF T cell expansion medium for 5 days. Flow cytometry was performed using anti-human FoxP3 staining kit (BD biosciences) to evaluate the frequency of CD4^+CD25^+Foxp3^+ Treg cells.

SMILES: Cc1cccc2c(Nc3ccnc(Nc4cccc(N5CCOCC5)c4)n3)cnnc12 [EX-11, N4-(8-methylcinnolin-4-yl)-N2-(3-morpholinophenyl)pyrimidine-2,4-diamine]
- antigen presentation pathway (APP) in tumors [1]: upregulates the APP in tumors
- CD31 staining (blood vessel density) [2]: no difference in CD31 staining
- CD45 (percentage of CD45+ cells) ([2]; vs anti-PD-1 and vehicle groups): increased
- TAGLN, Lamp5 and TGFβ1 expression ([3]; 300 nM + TGFβ 1 ng/mL): returned to baseline
- decrease of FAP, SDC1 and Col1A2 expression from baseline ([3]; 300 nM + TGFβ 1 ng/mL): 20-30%
- TGFβ-induced upregulation of CAF gene expression ([3]; 30 and 300 nM + TGFβ 1 ng/mL, 24 hours, all genes except CD9): dose dependently reversed
- minimum effective dose ([4]; BID, based on prior studies with EX-11): 150 mg/kg
- safety margin (maximum tolerated dose)/(minimum effective dose) ([4]; female, athymic nude, mouse, in vivo, 10 days): ≥ 6.7 fold
- survival compared with the vehicle control [5]: did not exhibit an increase in survival
- Treg frequency (CD4+CD25+Foxp3+ Treg cells as percentage of cells not treated with TGFβ) ([6]; 30 nM): 480%
- Treg frequency (CD4+CD25+Foxp3+ Treg cells as percentage of cells not treated with TGFβ) ([6]; 300 nM): 342%
- Treg frequency (CD4+CD25+Foxp3+ Treg cells as percentage of cells not treated with TGFβ) ([6]; 3000 nM): 126%
